The subject of one data set is WEEV replicon. The data set is described as follows: microbe, parasite or virus in culture. In kind it is cell-based, Western equine encephalitis virus.
In another data set the test system is NSV. In kind it is cell-based, neuroadapted Sindbis virus.
The test system of a further data set is WEEV. In kind it is cell-based, Western equine encephalitis virus.
Data set [1] concerns vaccine strain of Venezuelan equine encephalitis virus (VEEV). The note with it: mouse, in vivo; cited from earlier work.
Another data set deals with wild-type VEEV. The following applies: in vivo; cited from earlier work.
Where [2] appears, read: Western equine encephalitis virus, read-out: Activity IC50 (μM).
[3] abbreviates: Western equine encephalitis virus.
Setting [4] is: Western equine encephalitis virus; read-out: 50 μM (% control) Luc.

The IC50 is the concentration needed to halve the response being measured. In general, pIC50 refers to the IC50 on a negative log10 scale, so that one unit is a factor of ten. A high value points to a small IC50.

pIC50: −log10 of the molar value. Like-named read-outs stand apart in the source and are kept apart here.

For `O=C(NCc1ccccc1)C1CCN(C(=O)c2cc3ccccc3n2Cc2ccc(Cl)cc2)CC1` [CCG 102516, N-benzyl-1-(1-(4-chlorobenzyl)-1H-indole-2-carbonyl)piperidine-4-carboxamide], in the data set on WEEV replicon (setting [2]), the IC50 came out at 18.6 µM. In the data set on WEEV replicon (Western equine encephalitis virus; read-out: Activity (% control LUC) 2 μM), the activity at 2 µM amounted to 88%. For the same compound, the activity at 10 µM in the data set on WEEV replicon (Western equine encephalitis virus; read-out: Activity (% control LUC) 10 μM) came to 76.9%. Also, the activity at 50 µM with WEEV replicon (Western equine encephalitis virus; read-out: Activity (% control LUC) 50 μM) was found to be 59.7%. Also, in the data set on NSV, the “NSV titers (virion production, plaque assay)” value was “significantly reduced”. The “WEEV titers (virion production, plaque assay)” value in the data set with WEEV was “significantly reduced”.
As for `C[C@@H](NC(=O)C1CCN(C(=O)c2cc3ccccc3n2Cc2ccc(Cl)cc2)CC1)c1ccccc1` [CCG 203926, (R)-1-(1-(4-chlorobenzyl)-1H-indole-2-carbonyl)-N-(1-phenylethyl)piperidine-4-carboxamide], the “activity in the replicon inhibition assay (in words)” value in the data set with WEEV replicon is given as “active”. Moreover, in the data set with WEEV replicon (Western equine encephalitis virus, read-out: Activity (% control LUC) 2 μM), the activity at 2 µM stood at 100%. In the data set on WEEV replicon (Western equine encephalitis virus, read-out: Activity (% control LUC) 10 μM), the activity at 10 µM came to 55%. Besides, the activity at 50 µM in the data set with WEEV replicon (Western equine encephalitis virus, read-out: Activity (% control LUC) 50 μM) was 17%. In the data set on WEEV replicon (setting [2]), the concentration for half-maximal inhibition (IC50) amounted to 8.7 µM. Moreover, the “NSV titers (virion production, plaque assay)” value in the data set with NSV was “significantly reduced”. Moreover, the “WEEV titers (virion production, plaque assay)” value in the data set on WEEV is on record as “significantly reduced”. The cytotoxicity result in the data set with BSR-T7/C3 clone is “relatively low cytotoxicity”.
On to `C[C@H](NCC1CCN(C(=O)c2cc3ccccc3n2Cc2ccc(F)cc2)CC1)c1ccccc1` [CCG 206501, (S)-(1-(4-fluorobenzyl)-1H-indol-2-yl)(4-(((1-phenylethyl)amino)methyl)piperidin-1-yl)methanone], for which the pIC50 with WEEV replicon (setting [3]) was 5.05. Further, the activity at 50 µM in the data set with WEEV replicon (setting [4]) was determined as 0%.
With `O=C(c1cc2ccccc2n1Cc1ccc(F)cc1)N1CCC(CN2CCOCC2)CC1` [CCG 206502, (1-(4-fluorobenzyl)-1H-indol-2-yl)(4-(morpholinomethyl)piperidin-1-yl)methanone], in the data set with WEEV replicon (setting [3]), the negative logarithm of the IC50 (pIC50) is 4.39. In the data set on WEEV replicon (setting [4]), the activity at 50 µM worked out at 39.1%.
For the compound `CN(Cc1ccccc1)CC1CCN(C(=O)c2cc3ccccc3n2Cc2ccc(F)cc2)CC1` [CCG 206503, (4-((benzyl(methyl)amino)methyl)piperidin-1-yl)(1-(4-fluorobenzyl)-1H-indol-2-yl)methanone], the pIC50 in the data set with WEEV replicon (setting [3]) was 4.60. Moreover, the activity at 50 µM with WEEV replicon (setting [4]) was 28.2%.
Consider `CC(NC(=O)C1CCN(C(=O)c2cc3ccccc3n2Cc2ccc(Cl)cc2)CC1)C1Cc2ccccc2C1` (stereo not shown) [CCG 206549, 1-(1-(4-chlorobenzyl)-1H-indole-2-carbonyl)-N-(1-(2,3-dihydro-1H-inden-2-yl)ethyl)piperidine-4-carboxamide], for which the pIC50 in the data set with WEEV replicon (setting [3]) was 5.77. The activity at 50 µM in the data set on WEEV replicon (setting [4]) was 36.9%.
In the same order, the values of `O=C(NCC1CCc2ccccc21)C1CCN(C(=O)c2cc3ccccc3n2Cc2ccc(Cl)cc2)CC1` (stereo not shown) [CCG 206550, 1-(1-(4-chlorobenzyl)-1H-indole-2-carbonyl)-N-((2,3-dihydro-1H-inden-1-yl)methyl)piperidine-4-carboxamide] are 5.15 and 47.4%.
`O=C(NCCc1ccncc1)C1CCN(C(=O)c2nc3ccccc3n2Cc2ccc(Cl)cc2)CC1` [CCG 206565, 1-(1-(4-chlorobenzyl)-1H-benzo[d]imidazole-2-carbonyl)-N-(2-(pyridin-4-yl)ethyl)piperidine-4-carboxamide] had a pIC50 in the data set with WEEV replicon (setting [3]) of 5.39. Further, the activity at 50 µM in the data set with WEEV replicon (setting [4]) came out at 12%.
The corresponding values for `CC(CNC(=O)C1CCN(C(=O)c2cc3ccccc3n2Cc2ccc(Cl)cc2)CC1)c1ccncc1` (stereo not shown) [CCG 206580, 1-(1-(4-chlorobenzyl)-1H-indole-2-carbonyl)-N-(2-(pyridin-4-yl)propyl)piperidine-4-carboxamide] are 5.78 and 13.4%.
For the compound `O=C(NCC1COc2cnccc21)C1CCN(C(=O)c2cc3ccccc3n2Cc2ccc(Cl)cc2)CC1` (stereo not shown) [CCG 206581, 1-(1-(4-chlorobenzyl)-1H-indole-2-carbonyl)-N-((2,3-dihydrofuro[2,3-c]pyridin-3-yl)methyl)piperidine-4-carboxamide], the pIC50 in the data set with WEEV replicon (setting [3]) is 5.45. In addition, the activity at 50 µM in the data set with WEEV replicon (setting [4]) was determined as 8.6%.
As for `O=C(NCc1ccccc1)C1CCN(C(=O)c2nccn2Cc2ccc(Cl)cc2)CC1` [CCG 206586, N-benzyl-1-(1-(4-chlorobenzyl)-1H-imidazole-2-carbonyl)piperidine-4-carboxamide], the activity at 50 µM with WEEV replicon (setting [4]) turned out to be 69.5%.
Consider (−)-carbodine, for which, in data set [1], the disease outcome was “improved outcome” and the “lowering of peak CNS viral titers” value is on record as “half-log”. Also, in the data set with wild-type VEEV, the “benefit following wild-type VEEV challenge” value is on record as “no benefit”.
